The test system of assay [1] is myofibrillar proteins. The note with it: relative to sorbitol; Non-Patent Document 1; cited from earlier work.
Assay [2] has as its system myofibrillar proteins. Nature of the assay: Heat denaturation of myofibrillar proteins at 42° C., followed by loss of Ca-ATPase activity (denaturation rate constant KD). The note with it: for decline of rate of denaturation of myofibrillar proteins (logarithmic value of denaturation rate constant KD): compound added by 1M, myofibrils heated at 42° C., FIG. 2. The assay is classed as biochemical, carp (Cyprinus carpio). An excerpt:
(§1) In this embodiment, determination of the effect of inhibiting denaturation of fish meat-origin muscular proteins employs a method for calculating a rate of denaturation of myosin based on disappearance of Ca-ATPase activity as bioactivity of myosin {Tohru Oizumi et al.: Gyoruikingenseni-no-kanetsuhensei-ni-taisuru-to-oyobi-toarukohru-no-hogokohka-no-teiryokosatsu (Quantitative Examination of Effect of Protecting Sugars and Sugar Alcohols from Heat Denaturation of Fish Myofibril. Journal of the Japanese Society of Fisheries Science, 47, 901-908 (1981)}. Said method in this embodiment will be described as follows by dividing into a method for determining the effect of inhibiting heat denaturation and a method for determining effect of inhibiting freeze denaturation.
(§2) Firstly, a method for determining the effect of inhibiting heat denaturation is described. […] Then, changes in Ca-ATPase activity of the fish meat-origin muscular proteins heated are analyzed according to a first-order reaction equation to calculate a denaturation rate constant (KD). Ca-ATPase activity is measured by preparing a reaction composition liquid composed of 0.5M KCl, 25 mM Tris-maleate (pH 7.0), 5 mM CaCl2, 1 mM ATP and 0.2 to 0.3 mg/ml of fish meat-origin muscular proteins subjected to heating and ice cold and determining free inorganic phosphate quantitatively. Then, denaturation rate constant is calculated from Ca-ATPase activity obtained and heating time. Consequently, if the denaturation rate constant is smaller, the effect of inhibiting denaturation of fish meat-origin muscular proteins is significant, and if the denaturation rate constant is larger, the effect of inhibiting denaturation of fish meat-origin muscular proteins is small.
After 5% perchloric acid was added thereto to stop the reaction and filter the product, free inorganic phosphate was subjected to colorimetric determination by phosphomolybdic acid method to calculate a logarithmic value of denaturation rate constant.

Assay [3] relates to myofibrillar proteins. The assay can be described thus: Freeze denaturation of myofibrillar proteins, remaining Ca-ATPase activity after cryopreservation at −20° C. The assay is classed as biochemical, carp (Cyprinus carpio). Particulars: approximately 1 month, FIG. 3. The procedure: Next, a method for determining the effect of inhibiting freeze denaturation will be described. […] In this case, a comparison is made not by an absolute value of denaturation rate constant but a relative value thereof. The measurement of Ca-ATPase activity is the same as above.
The myofibrils were taken approximately 1 month later and added to 0.5M KCl, 25 mM Tris-maleate (pH 7.0), 5 mM CaCl2 and 1 mM ATP to prepare a reaction composition liquid to be reacted at 25° C. After 5% perchloric acid was added thereto to stop the reaction and filter the product, free inorganic phosphate was subjected to colorimetric determination by phosphomolybdic acid method to calculate Ca-ATPase activity and analyze the extent of denaturation observed from the decline of Ca-ATPase activity.

The target in a further assay is T1, myosin (Cyprinus carpio, UniProt Q90339).
T1 construct: myofibrils were prepared from dorsal meat of carp (Cyprinus carpio); from tissue; host or cells: dorsal muscle of carp
T1 sequence (Q90339 whole entry): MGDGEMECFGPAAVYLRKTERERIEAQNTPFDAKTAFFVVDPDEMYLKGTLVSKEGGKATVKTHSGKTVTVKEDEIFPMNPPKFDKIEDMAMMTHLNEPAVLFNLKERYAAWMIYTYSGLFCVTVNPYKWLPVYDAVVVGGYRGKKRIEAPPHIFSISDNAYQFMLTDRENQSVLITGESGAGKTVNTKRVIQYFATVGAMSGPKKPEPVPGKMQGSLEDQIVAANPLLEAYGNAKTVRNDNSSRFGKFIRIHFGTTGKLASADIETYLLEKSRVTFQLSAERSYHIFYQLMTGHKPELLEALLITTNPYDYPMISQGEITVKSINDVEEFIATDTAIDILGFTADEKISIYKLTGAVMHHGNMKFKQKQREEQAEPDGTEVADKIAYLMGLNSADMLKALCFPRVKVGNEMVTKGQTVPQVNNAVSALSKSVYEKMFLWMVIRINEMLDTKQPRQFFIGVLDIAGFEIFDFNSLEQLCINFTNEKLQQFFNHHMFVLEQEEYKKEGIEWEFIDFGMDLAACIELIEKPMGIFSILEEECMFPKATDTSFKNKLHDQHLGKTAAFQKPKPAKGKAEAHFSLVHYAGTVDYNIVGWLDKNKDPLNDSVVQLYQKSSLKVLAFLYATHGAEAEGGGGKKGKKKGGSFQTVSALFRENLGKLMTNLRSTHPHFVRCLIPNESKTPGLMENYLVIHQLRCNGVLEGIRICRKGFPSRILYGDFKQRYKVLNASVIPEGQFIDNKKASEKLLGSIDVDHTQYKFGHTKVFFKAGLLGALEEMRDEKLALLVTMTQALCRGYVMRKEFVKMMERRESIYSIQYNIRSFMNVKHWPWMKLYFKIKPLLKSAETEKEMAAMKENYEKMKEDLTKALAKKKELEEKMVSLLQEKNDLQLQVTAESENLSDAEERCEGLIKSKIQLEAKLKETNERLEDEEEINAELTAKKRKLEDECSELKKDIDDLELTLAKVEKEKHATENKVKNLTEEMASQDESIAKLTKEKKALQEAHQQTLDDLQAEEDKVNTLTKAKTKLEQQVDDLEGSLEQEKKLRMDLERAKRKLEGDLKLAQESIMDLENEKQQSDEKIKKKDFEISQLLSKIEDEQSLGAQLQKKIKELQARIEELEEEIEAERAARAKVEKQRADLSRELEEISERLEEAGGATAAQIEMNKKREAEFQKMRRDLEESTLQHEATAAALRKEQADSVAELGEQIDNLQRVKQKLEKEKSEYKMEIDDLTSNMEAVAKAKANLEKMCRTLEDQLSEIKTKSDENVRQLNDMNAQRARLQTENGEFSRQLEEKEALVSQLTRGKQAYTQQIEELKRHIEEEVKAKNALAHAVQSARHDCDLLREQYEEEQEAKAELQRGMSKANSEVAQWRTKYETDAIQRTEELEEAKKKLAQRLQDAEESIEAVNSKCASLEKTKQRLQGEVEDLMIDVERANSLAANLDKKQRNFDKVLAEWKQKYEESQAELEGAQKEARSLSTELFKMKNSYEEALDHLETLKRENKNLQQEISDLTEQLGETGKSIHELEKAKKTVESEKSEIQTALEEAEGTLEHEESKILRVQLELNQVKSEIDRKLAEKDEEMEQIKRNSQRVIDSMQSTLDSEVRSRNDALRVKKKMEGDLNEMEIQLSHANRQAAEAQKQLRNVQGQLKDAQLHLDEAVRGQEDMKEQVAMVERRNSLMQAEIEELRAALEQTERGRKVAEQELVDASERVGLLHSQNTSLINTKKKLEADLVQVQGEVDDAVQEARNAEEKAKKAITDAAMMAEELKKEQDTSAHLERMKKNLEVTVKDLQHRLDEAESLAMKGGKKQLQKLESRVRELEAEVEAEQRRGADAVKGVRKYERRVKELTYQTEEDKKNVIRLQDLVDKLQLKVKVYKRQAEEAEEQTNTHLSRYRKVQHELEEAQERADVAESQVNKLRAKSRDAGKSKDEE
Nature of the assay: Heat denaturation of myosin at 35° C., followed by loss of Ca-ATPase activity (denaturation rate constant KD). The assay is classed as biochemical, carp (Cyprinus carpio). Particulars: compound added by 1M; myosin heated at 35° C.; FIG. 1.
Excerpt: as §1, §2
After myofibrils were prepared from dorsal meat of carp (Cyprinus carpio) according to a method by Noboru Katoh et al. {Noboru Katoh et al.: Gyruikingenseni-ATPase-no-seikagakuteki-kenkyu (Biochemical Research of Fish Myofibrillary ATPase). Journal of the Japanese Society of Fisheries Science, 43, 857-867 (1977)}, the myofibrils were dissolved in 0.5M KCl in the presence of ATP-Mg and 40 to 55% ammonium sulfate fraction was used as myosin by ammonium sulfate fractionation. […] After 5% perchloric acid was added thereto to stop the reaction and filter the product, free inorganic phosphate was subjected to colorimetric determination by phosphomolybdic acid method to calculate a logarithmic value of denaturation rate constant.

The test system of assay [4] is myofibrillar proteins. Nature of the assay: Dissolution of myofibrillar proteins, soluble proteins in supernatant after centrifugal separation. Format: biochemical, carp (Cyprinus carpio). The note with it: addition of 0.6M; FIG. 4.

The structures appear in SMILES notation.

Take `O=C([O-])[C@H](O)[C@@H](O)[C@H](O)[C@H](O)CO.[Na+]` [sodium gluconate]: the “inhibition of heat denaturation of myofibrillar proteins, times sorbitol” value in the assay on myofibrillar proteins [1] is reported as “about 1.5 times”.

For the molecule `N[C@@H](CCC(=O)[O-])C(=O)[O-].[Na+].[Na+]` [sodium glutamate], the “decline of rate of denaturation of myofibrillar proteins (logarithmic value of denaturation rate constant KD)” value in the assay on myofibrillar proteins [2] is 0.9. In addition, the “effect of inhibiting freeze denaturation (Ca-ATPase activity), ranking” value (“effect of inhibiting freeze denaturation” below) in the assay on myofibrillar proteins [3] is on record as “strongest effect of inhibiting freeze denaturation”. In addition, the “decline of rate of denaturation of myosin (logarithmic value of denaturation rate constant KD)” value at myosin was 1.7.

For the molecule `CC(=O)[O-].[Na+]` [sodium acetate], the “decline of rate of denaturation of myofibrillar proteins (logarithmic value of denaturation rate constant KD)” value with myofibrillar proteins [2] came to 0.3. The “effect of inhibiting freeze denaturation” value in the assay with myofibrillar proteins [3] is given as “smallest effect of inhibiting freeze denaturation”. Besides, on myosin, the “decline of rate of denaturation of myosin (logarithmic value of denaturation rate constant KD)” value came out at 1.1.

Take `O=C([O-])CC(O)(CC(=O)[O-])C(=O)[O-].[Na+].[Na+].[Na+]` [sodium citrate]: the “decline of rate of denaturation of myofibrillar proteins (logarithmic value of denaturation rate constant KD)” value with myofibrillar proteins [2] is 0.9. Also, the “effect of stabilizing myofibrillar proteins, times sodium gluconate” value in the assay on myofibrillar proteins [2] (relative to sodium gluconate, worked out from own data and Non-Patent Document 1) is reported as “at least 1.3 times”. The “effect of inhibiting freeze denaturation” value in the assay on myofibrillar proteins [3] was “strongest effect of inhibiting freeze denaturation”. Also, the “decline of rate of denaturation of myosin (logarithmic value of denaturation rate constant KD)” value at myosin was 1.7.

For `OC[C@@H](O)[C@@H](O)[C@H](O)[C@@H](O)CO` [sorbitol], the “decline of rate of denaturation of myofibrillar proteins (logarithmic value of denaturation rate constant KD)” value in the assay with myofibrillar proteins [2] came out at 0.6. For the same molecule, in the assay with myofibrillar proteins [4], the “dissolution of myofibrillar proteins at 0.6M, in words” value is “not dissolved at all”. Moreover, the “effect of inhibiting freeze denaturation” value in the assay with myofibrillar proteins [3] is “smallest effect of inhibiting freeze denaturation, followed by sorbitol”. The “decline of rate of denaturation of myosin (logarithmic value of denaturation rate constant KD)” value on myosin is on record as 0.7.

The record behind these values is patent publication US20100119655A1, “MUSCULAR PROTEIN DENATURATION INHIBITOR, ADDITIVE FOR A FISH MEAT-ORIGIN GROUND MEAT, FISH MEAT-ORIGIN GROUND MEAT CONTAINING THE SAME AND METHOD OF PRODUCING THE SAME” (Nagasaki Prefectural Government, priority 2007, published 2010).
